Experimental data as given in patent US7338958B2, “Sulfoximine-substituted pyrimidines as CDK-and/or VEGF inhibitors, their production and use as pharmaceutical agents” (Schering AG, priority 2003, dated 2008).

Legend:
[1] = system: MCF7, hormone-independent human breast cancer cells; test: Proliferation assay, MCF7; type: cell-based; settings: MCF7, 96 h, 4 days incubation, crystal violet
Summary of the method: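 Cells seeded ~5000/well, treated after 24 h with 0.01-30 μM compound (0.5% DMSO) for 4 days. Glutaraldehyde-fixed cells stained with crystal violet, absorbance at 595 nm; growth expressed as percent, normalized to zero-point plate (0%) and untreated cells (100%).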

[2] = system: NCI-H460, human non-small-cell lung cancer cells; test: Proliferation assay, H460; type: cell-based; settings: NCI-H460, 96 h, 4 days incubation, crystal violet
Description: (§1) Cultivated human tumor cells (MCF7, hormone-independent human breast cancer cells, related to ATCC HTB22; NCI-H460, human non-small-cell lung cancer cells, ATCC HTB-177, HCT 116, human colon cancer cells, ATCC CCL-247; DU 145, hormone-independent human prostate cancer cells, ATCC HTB-81; MaTu-MDR, hormone-independent, multiple pharmaceutical agent-resistant human breast cancer cells, EPO-GmbH, Berlin) were flattened out at a density of about 5000 cells/measuring point, depending on the growth rate of the respective cells, in a 96-well multititer plate in 200 μl of the corresponding growth medium. After 24 hours, the cells of one plate (zero-point plate) were colored with crystal violet (see below), while the medium of the other plates was replaced by fresh culture medium (200 μl), to which the test substances were added in various concentrations (0 μm, as well as in the range of 0.01-30 μm; the final concentration of the solvent dimethyl sulfoxide was 0.5%). The cells were incubated for 4 days in the presence of test substances. The cell proliferation was determined by coloring the cells with crystal violet: the cells were fixed by adding 20 μl/measuring point of an 11% glutaric aldehyde solution for 15 minutes at room temperature. After three washing cycles of the fixed cells with water, the plates were dried at room temperature. The cells were colored by adding 100 μl/measuring point of a 0.1% crystal violet solution (the pH was set at 3 by adding acetic acid). After three washing cycles of the colored cells with water, the plates were dried at room temperature. The dye was dissolved by adding 100 μl/measuring point of a 10% acetic acid solution. The extinction was determined by photometry at a wavelength of 595 nm. The change of cell growth, in percent, was calculated by normalization of the measured values to the extinction values of the zero-point plate (=0%) and the extinction of the untreated (0 μm) cells (=100%).

[3] = system: DU 145, hormone-independent human prostate cancer cells; test: Proliferation assay, DU145; type: cell-based; settings: DU-145, 96 h, 4 days incubation, crystal violet
Description: as §1

MaTu-ADR = test: Proliferation assay, MaTu-ADR; type: cell-based; settings: Homo sapiens, 96 h, MaTu-ADR cells, 4 days incubation, crystal violet
Description: as §1

CDK2/CycE = target: T1, CDK2/CycE (Homo sapiens, UniProt P24941); test: CDK2/CycE Kinase Assay; type: biochemical; settings: histone IIIS substrate, 33P-ATP, 15 minutes at 22° C.
T1 construct: GST; purchased ProQinase GmbH, Freiburg; host or cells: baculovirus-infected insect cells (Sf9)
Experimental: Recombinant CDK2- and CycE-GST-fusion proteins, purified from baculovirus-infected insect cells (Sf9), were purchased by ProQinase GmbH, Freiburg. Histone IIIs, which was used as a kinase substrate, was purchased by the Sigma Company.
CDK2/CycE (50 ng/measuring point) was incubated for 15 minutes at 22° C. in the presence of various concentrations of test substances (0 μm, as well as within the range of 0.01-100 μm) in assay buffer [50 mmol of tris/HCl, pH 8.0, 10 mmol of MgCl2, 0.1 mmol of Na ortho-vanadate, 1.0 mmol of dithiothreitol, 0.5 μm of adenosine triphosphate (ATP), 10 μg/measuring point of histone IIIS, 0.2 μCi/measuring point of ^33P-gamma ATP, 0.05% NP40, 12.5% dimethyl sulfoxide]. The reaction was stopped by adding EDTA solution (250 mmol, pH 8.0, 14 μl/measuring point).
From each reaction batch, 10 μl was applied to P30 filter strips (Wallac Company), and non-incorporated ^33P-ATP was removed by subjecting the filter strips to three washing cycles for 10 minutes each in 0.5% phosphoric acid. After the filter strips were dried for one hour at 70° C., the filter strips were covered with scintillator strips (MeltiLex™ A, Wallac Company) and baked for one hour at 90° C. The amount of incorporated ^33P (substrate phosphorylation) was determined by scintillation measurement in a gamma-radiation measuring device (Wallac).

CDK1/CycB = target: T2, CDK1/CycB (Homo sapiens, UniProt P06493); test: CDK1/CycB Kinase Assay; type: biochemical; settings: histone IIIS substrate, 33P-ATP, 15 minutes at 22° C.
T2 construct: GST; purchased ProQinase GmbH, Freiburg; host or cells: baculovirus-infected insect cells (Sf9)

[4] = target: T3, VEGF receptor tyrosine kinase-2 (Homo sapiens, UniProt P35968); test: VEGF Receptor-2 Kinase Assay; type: biochemical; settings: poly-(Glu4Tyr) substrate, 33P-ATP, 10 minutes at 22° C.; read-out: VEGF-R2 IC50
T3 construct: GST; made in house; host or cells: baculovirus-infected insect cells (Sf9)
T3 sequence (P35968 20-1356): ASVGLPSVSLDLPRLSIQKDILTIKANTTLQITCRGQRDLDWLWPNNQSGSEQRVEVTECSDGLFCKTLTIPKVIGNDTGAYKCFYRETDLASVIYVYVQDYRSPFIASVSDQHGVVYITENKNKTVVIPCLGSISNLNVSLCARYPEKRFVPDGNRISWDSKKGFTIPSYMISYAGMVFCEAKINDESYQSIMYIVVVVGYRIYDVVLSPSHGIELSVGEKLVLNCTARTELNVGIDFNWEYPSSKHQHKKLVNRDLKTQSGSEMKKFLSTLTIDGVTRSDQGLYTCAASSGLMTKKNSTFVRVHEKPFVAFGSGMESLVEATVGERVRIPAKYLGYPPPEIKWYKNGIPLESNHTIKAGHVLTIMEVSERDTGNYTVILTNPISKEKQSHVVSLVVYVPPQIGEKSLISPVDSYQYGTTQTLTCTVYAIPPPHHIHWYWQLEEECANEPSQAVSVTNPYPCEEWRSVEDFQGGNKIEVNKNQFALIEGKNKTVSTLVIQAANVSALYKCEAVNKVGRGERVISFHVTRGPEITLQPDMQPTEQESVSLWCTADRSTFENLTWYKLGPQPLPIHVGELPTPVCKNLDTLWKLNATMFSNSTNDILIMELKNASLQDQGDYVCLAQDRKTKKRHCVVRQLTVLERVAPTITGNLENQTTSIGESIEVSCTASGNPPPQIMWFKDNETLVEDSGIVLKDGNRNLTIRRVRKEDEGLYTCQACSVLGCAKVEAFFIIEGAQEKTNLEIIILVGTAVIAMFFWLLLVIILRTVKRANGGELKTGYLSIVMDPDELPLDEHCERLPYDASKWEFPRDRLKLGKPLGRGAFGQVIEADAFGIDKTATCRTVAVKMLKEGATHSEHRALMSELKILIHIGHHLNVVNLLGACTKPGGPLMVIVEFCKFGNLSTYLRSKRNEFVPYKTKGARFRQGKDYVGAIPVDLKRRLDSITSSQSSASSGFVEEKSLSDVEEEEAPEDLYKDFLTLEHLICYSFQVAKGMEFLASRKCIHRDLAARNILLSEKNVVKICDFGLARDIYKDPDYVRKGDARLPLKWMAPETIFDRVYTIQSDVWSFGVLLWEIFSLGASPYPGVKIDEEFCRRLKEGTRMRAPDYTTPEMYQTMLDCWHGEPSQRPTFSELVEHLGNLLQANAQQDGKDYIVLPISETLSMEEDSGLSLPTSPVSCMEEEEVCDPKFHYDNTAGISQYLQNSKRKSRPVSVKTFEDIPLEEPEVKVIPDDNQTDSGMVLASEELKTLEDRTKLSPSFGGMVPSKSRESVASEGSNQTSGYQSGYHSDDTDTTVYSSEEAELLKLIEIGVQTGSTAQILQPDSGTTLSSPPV

T2 sequence (P06493 whole entry): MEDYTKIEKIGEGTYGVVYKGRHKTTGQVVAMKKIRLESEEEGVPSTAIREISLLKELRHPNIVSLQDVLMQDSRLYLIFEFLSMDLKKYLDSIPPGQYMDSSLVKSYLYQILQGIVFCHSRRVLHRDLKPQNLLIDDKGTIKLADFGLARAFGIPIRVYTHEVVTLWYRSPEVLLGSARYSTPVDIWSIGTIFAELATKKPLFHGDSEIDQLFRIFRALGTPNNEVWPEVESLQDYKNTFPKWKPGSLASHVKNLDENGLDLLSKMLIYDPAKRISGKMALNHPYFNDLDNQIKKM
T2 sequence (P14635 whole entry partner): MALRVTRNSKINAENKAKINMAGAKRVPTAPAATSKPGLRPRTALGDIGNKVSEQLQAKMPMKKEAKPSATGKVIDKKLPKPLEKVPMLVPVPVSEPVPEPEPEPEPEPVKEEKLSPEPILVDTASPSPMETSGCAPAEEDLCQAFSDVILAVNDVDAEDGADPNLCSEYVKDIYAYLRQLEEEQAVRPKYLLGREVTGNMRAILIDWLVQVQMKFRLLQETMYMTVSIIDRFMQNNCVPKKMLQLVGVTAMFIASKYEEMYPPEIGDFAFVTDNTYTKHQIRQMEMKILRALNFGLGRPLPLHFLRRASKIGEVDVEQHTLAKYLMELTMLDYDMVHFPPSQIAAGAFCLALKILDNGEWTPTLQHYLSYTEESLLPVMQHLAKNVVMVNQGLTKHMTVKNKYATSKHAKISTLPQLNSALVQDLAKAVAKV

Row | IC50 [1] | IC50 [2] | IC50 [3] | IC50 (CDK2/CycE) | IC50 (CDK1/CycB) | IC50 [4] | Structure (SMILES) | IC50 (MaTu-ADR)
1 | 190 nM | 180 nM | 300 nM | 12 nM | 16 nM | 56 nM | CCOC(=O)N=S(C)(=O)c1ccc(Nc2ncc(Br)c(N[C@H](C)[C@@H](C)O)n2)cc1 (mixture of isomers) [Example 1.32, (RS)-S-[4-({5-bromo-4-[(1R,2R)-(2-hydroxy-1-methylpropyl)amino]pyrimidin-2-yl}amino)phenyl]-N-(ethoxycarbonyl)-S-methyl sulfoximide] | 600 nM
2 | 120 nM | 60 nM | 130 nM | 78 nM | 75 nM | 59 nM | CCOC(=O)N=S(C)(=O)c1ccc(Nc2ncc(Br)c(N[C@H](C)[C@@H](C)O)n2)cc1C (mixture of isomers) [Example 1.38, (RS)-S-[4-({5-bromo-4-[(1R,2R)-(2-hydroxy-1-methylpropyl)amino]pyrimidin-2-yl}amino)-2-methylphenyl]-N-(ethoxycarbonyl)-S-methyl sulfoximide] | 400 nM
3 | 170 nM | < 100 nM | 160 nM | 48 nM | 63 nM | 57 nM | CCOC(=O)N=S(C)(=O)c1ccc(Nc2ncc(Br)c(N[C@H](C)C(C)(C)O)n2)cc1C (mixture of isomers) [Example 1.37, (RS)-S-[4-({5-bromo-4-[(R)-(2-hydroxy-1,2-dimethylpropyl)amino]pyrimidin-2-yl}amino)-2-methylphenyl]-N-(ethoxycarbonyl)-S-methyl sulfoximide] | 300 nM

Further lines, the compound ahead of its results:

Row | Structure (SMILES) | IC50 [1] | IC50 [2] | IC50 [3] | IC50 (CDK2/CycE) | IC50 (CDK1/CycB) | IC50 [4] | IC50 (MaTu-ADR)
4 | C[C@@H](Nc1nc(Nc2ccc(S(=O)(=NS(=O)(=O)CC[Si](C)(C)C)C3CCCC3)cc2)ncc1Br)C(C)(C)O (mixture of isomers) [Example 1.10, (RS)-S-[4-({5-bromo-4-[(R)-(2-hydroxy-1,2-dimethylpropyl)amino]pyrimidin-2-yl}amino)phenyl]-S-cyclopentyl-N-[2-(trimethylsilyl)ethylsulfonyl]sulfoximide] | 500 nM | 700 nM | 800 nM | > 1000 nM | > 1000 nM | 910 nM | 800 nM
5 | CCOC(=O)N=S(=O)(CC)c1ccc(Nc2ncc(Br)c(N[C@H](C)C(C)(C)O)n2)cc1 (mixture of isomers) [Example 1.35, (RS)-S-[4-({5-bromo-4-[(R)-(2-hydroxy-1,2-dimethylpropyl)amino]pyrimidin-2-yl}amino)phenyl]-N-(ethoxycarbonyl)-S-ethyl sulfoximide] | 110 nM | 120 nM | 120 nM | 42 nM | 96 nM | 94 nM | 300 nM
6 | CCOC(=O)N=S(C)(=O)c1ccc(Nc2ncc(Br)c(N[C@H](C)C(C)(C)O)n2)cc1 (mixture of isomers) [Example 1.31, (RS)-S-[4-({5-bromo-4-[(R)-(2-hydroxy-1,2-dimethylpropyl)amino]pyrimidin-2-yl}amino)phenyl]-N-(ethoxycarbonyl)-S-methyl sulfoximide] | 200 nM | 180 nM | 300 nM | 9 nM | 27 nM | 140 nM | 700 nM
7 | CCOC(=O)N=S(C)(=O)c1ccc(Nc2ncc(Br)c(O[C@H](C)[C@@H](C)O)n2)cc1 (mixture of isomers) [Example 1.40, (RS)-S-[4-({5-bromo-4-[(1R,2R)-2-hydroxy-1-methylpropoxy]pyrimidin-2-yl}amino)phenyl]-N-(ethoxycarbonyl)-S-methyl sulfoximide] | 110 nM | 170 nM | 180 nM | 14 nM | 21 nM | 110 nM | 300 nM
